Measurements as given in paper PMC6982223, “Design, Synthesis and Molecular Modeling Study of Conjugates of ADP and Morpholino Nucleosides as A Novel Class of Inhibitors of PARP-1, PARP-2 and PARP-3” (International Journal of Molecular Sciences, 2019).

Columns and labels:
Type in all cases: biochemical
PARP-3 = target: T1, PARP-3 (Homo sapiens, UniProt Q9Y6F1); experiment: auto(ADP-ribosyl)ation of PARP-3
T1 construct: made in house
T1 sequence (Q9Y6F1 1-533): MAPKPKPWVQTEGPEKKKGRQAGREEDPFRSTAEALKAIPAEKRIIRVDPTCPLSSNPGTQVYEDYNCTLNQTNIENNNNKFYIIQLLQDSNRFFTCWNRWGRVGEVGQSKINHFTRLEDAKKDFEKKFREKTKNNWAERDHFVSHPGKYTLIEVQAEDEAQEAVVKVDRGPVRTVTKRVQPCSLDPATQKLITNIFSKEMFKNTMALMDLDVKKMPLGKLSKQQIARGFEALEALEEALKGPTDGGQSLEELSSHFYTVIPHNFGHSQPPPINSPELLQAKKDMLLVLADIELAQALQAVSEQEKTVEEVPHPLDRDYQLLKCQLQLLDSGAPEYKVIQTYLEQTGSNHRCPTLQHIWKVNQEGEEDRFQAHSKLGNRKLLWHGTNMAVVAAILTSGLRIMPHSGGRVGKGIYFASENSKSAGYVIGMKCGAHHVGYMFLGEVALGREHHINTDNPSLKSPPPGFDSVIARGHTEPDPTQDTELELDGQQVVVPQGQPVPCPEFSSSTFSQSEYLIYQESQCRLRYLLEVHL
Description: (§1) The oligonucleotides were purchased from Biosset (Novosibirsk, Russia). The reagents, solvents and the basic components of buffers were purchased from Sigma (St. Louis, MO, USA), Acros organics (Waltham, MA, USA) or Promega (Madison, WI, USA). γ–[^32P]-ATP and α–[^32P]-ATP (with specific activities of 5000 and 3000 Ci/mmol, respectively) were from the Laboratory of Biotechnology (Institute of Chemical Biology and Fundamental Medicine, Novosibirsk, Russia). T4 polynucleotide kinase was from Biosan (Novosibirsk, Russia). SUMO fusion expression vector pETHSUL (GenBank: EF205333.1) and pSUPER vector coding for the catalytic domain of the S. cerevisiae SUMO hydrolase dtUD1 were kindly provided by Dr. P. Loll (Drexel University, Philadelphia, USA). His6 and Strep-II double-tagged dtUD1 hydrolase was expressed and purified as described in ref. [81]. Human recombinant poly(ADP-ribose)-polymerase 1 (EC 2.4.2.30) was prepared as described previously. Murine recombinant poly(ADP-ribose)-polymerase 2 (EC 2.4.2.30) was purified as described previously. Plasmid encoding human PARP-3 was kindly provided by Dr. A. Ishchenko (Gustave Roussy, Université Paris-Saclay, France). Poly(ADP-ribose)-polymerase 3 (EC 2.4.2.30) was purified according to [6].
The reactions were performed in the presence of 2 mM MgCl2 as a cofactor in HDB buffer. The reaction mixtures (final volume 10 μL) contained 0.1 μM DNA substrate, 0.5 μM PARP-3, 5 μM [^32P]-NAD+ and 0, 35 or 95 μM NAD+ in the absence or presence of various concentrations of the inhibitor, which are indicated on the figures. The reaction mixtures were incubated for 20 min at 37 °С then terminated by adding the 5x gel loading Laemmli sample buffer and heating at 85 °C for 10 min. The mixtures were resolved on a 10% SDS-PAG as described in [84] The gels were dried and subjected to autoradiography and/or phosphorimaging for quantitation using the Typhoon imaging system from GE Healthcare Life Sciences. Quantitative processing was carried out using OriginPro7.5, Microcal Software, USA. […]

PARP-1 = target: T2, PARP-1 (Homo sapiens, UniProt P09874); experiment: kinetics of PARP-1 inhibition (Km, Vmax, type of inhibition) by fluorescence anisotropy; conditions: for type of inhibition: PARP-1 catalyzed reaction, versus NAD+
T2 construct: made in house
Protocol: The type of inhibition was determined based on at what stage of the reaction the inhibitor binds to the enzyme (before or after the substrate binding) and where it binds (at the substrate binding site or elsewhere). There are four types of inhibition: competitive, whereby an inhibitor binding occurs at the substrate-binding site; noncompetitive, where an inhibitor binds at the allosteric center; mixed with inhibitor binding at both the active and allosteric center; or uncompetitive under an inhibitor binding to the enzyme-substrate complex. Determination of the type of inhibition is necessary to confirm the computer simulation data and to plan further modifications of the inhibitor structure. The type of inhibition can be determined from the plots of the reaction parameters, such as maximum rates, Vmax and the apparent Michaelis constant, Km, values, versus inhibitor concentration. […] Noncompetitive inhibition leads to a decrease of Vmax and retention of the Km values. Mixed inhibition is a superposition of the first two, and is characterized by a decrease in the reaction rate and an increase in Km values. In the case of uncompetitive inhibition, both […].
To determine the type of inhibition of the studied compounds, the activity of PARP-1 was measured at presence of three different inhibitor concentrations at nine NAD+ substrate concentrations by the fluorescence anisotropy technique. Based on the obtained data, dependence graphs of the initial reaction rate on the substrate concentration were constructed, and reaction parameters such as maximum reaction rate (Vmax) and apparent Michaelis constant (Km) values were found (Tables S3 and S4, Supporting). To determine the type of inhibition, we plotted the dependence graph of Vmax and Km values on the inhibitor concentration using OriginPro 8.6.0 software. (Figure 3). […] Therefore, the results of modeling of the binding type of these compounds in the enzyme’s active center are legitimate.
The determination of the kinetic parameters of inhibition Km and Vmax was carried out as described. In all experiments, the points on the experimental curves represent the average of a minimum three independent experiments.

[1] = target: T3, Human recombinant poly(ADP-ribose)-polymerase 1 (Homo sapiens, UniProt P09874); experiment: autopoly(ADP-ribosyl)ation of PARP-1, [32P]NAD+ incorporation; conditions: autopoly(ADP-ribosyl)ation, 0.3 mM NAD+
T3 construct: made in house
Description: as §1
(§2) The reaction of autopoly(ADP-ribosyl)ation was carried out as follows: for PARP-1 50 mM tris-HCl, pH 8.0, 20 mM MgCl2, 150 mM NaCl, and 7 mM β-mercaptoethanol, activated DNA 2 OE/mL, 0.3 mM [^32P] NAD+ at 37 °C. The reaction was initiated by adding PARP-1 to 200 nM and the reaction mixtures were incubated for 1.5 min. For PARP-2: 50 mM tris-HCl, pH 8.0, 3 mM spermin, 150 mM NaCl, and 7 mM β-mercaptoethanol, activated DNA 2 OE/mL, 0.6 mM [^32P] NAD+ at 37 °C. The reaction was initiated by adding PARP-2 to 800 nM and the reaction mixtures were incubated for 5 min. The reaction was stopped by placing 10 μL aliquots onto Whatman 1 paper filters soaked with 5 % TCA. The filters were washed with 5% TCA for four times and dried in air after the removal of TCA with 90% ethanol. The incorporation of radioactivity into the product was calculated with a Tri-Carb 2800 scintillation counter (Perkin Elmer, Waltham, MA, USA) according to the Cherenkov method or using Typhoon FLA 9500 scanner (GE Healthcare, Chicago, IL, USA). To determine the IC50 value of inhibitors (concentration of the compound required reducing the enzyme activity by 50%), we studied the activity of the enzyme at different concentrations of inhibitors. Measurements were done in at least two independent experiments. IC50 values were calculated using the Origin Pro 8.0 software by nonlinear regression analysis.

[2] = target: T4, Murine recombinant poly(ADP-ribose)-polymerase 2 (Mus musculus, UniProt O88554); experiment: autopoly(ADP-ribosyl)ation of PARP-2, [32P]NAD+ incorporation; conditions: autopoly(ADP-ribosyl)ation, 0.6 mM NAD+
T4 construct: made in house
Description: as §1, §2

T2 sequence (P09874 whole entry): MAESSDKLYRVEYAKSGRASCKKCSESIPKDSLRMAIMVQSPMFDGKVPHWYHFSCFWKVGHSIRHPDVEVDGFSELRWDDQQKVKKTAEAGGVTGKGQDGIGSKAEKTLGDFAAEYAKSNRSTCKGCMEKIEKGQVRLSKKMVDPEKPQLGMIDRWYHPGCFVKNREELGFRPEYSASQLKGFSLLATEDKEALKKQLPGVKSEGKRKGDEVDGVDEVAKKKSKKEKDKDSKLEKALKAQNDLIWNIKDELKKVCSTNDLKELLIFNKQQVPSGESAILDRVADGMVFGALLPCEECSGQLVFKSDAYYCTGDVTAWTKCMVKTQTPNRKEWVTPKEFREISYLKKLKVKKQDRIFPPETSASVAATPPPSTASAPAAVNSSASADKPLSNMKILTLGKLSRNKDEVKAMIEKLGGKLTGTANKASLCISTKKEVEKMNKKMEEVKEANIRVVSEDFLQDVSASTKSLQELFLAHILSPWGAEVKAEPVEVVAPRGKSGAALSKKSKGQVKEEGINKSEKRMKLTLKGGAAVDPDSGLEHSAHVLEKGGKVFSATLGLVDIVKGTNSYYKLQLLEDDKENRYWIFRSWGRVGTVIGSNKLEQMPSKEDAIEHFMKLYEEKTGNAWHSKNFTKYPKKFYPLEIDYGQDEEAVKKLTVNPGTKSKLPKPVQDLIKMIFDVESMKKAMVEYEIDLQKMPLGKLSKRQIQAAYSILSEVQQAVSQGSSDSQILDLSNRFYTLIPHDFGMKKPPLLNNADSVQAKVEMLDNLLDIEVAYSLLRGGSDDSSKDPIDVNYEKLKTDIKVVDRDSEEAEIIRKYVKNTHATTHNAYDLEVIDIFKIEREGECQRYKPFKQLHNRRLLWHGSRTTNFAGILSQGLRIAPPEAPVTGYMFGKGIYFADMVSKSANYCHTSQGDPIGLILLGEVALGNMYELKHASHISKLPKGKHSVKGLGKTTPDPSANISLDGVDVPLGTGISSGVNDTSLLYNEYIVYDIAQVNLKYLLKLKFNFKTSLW
T4 sequence (O88554 whole entry): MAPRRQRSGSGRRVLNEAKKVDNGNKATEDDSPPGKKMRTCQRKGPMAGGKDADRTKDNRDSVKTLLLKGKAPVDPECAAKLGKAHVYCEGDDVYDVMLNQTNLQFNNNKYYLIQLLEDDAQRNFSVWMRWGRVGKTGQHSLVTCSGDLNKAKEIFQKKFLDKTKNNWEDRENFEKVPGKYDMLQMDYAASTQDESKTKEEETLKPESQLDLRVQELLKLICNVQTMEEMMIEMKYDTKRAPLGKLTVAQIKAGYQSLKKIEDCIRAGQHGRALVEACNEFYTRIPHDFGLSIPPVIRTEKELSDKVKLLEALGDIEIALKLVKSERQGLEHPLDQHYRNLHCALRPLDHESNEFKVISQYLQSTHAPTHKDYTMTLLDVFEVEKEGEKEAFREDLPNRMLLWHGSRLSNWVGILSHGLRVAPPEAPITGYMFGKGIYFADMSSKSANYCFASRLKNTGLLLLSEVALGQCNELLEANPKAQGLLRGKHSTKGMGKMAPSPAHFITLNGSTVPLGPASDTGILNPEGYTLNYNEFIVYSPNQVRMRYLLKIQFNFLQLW
T3 sequence (P09874 whole entry): as the sequence (P09874 whole entry) above

Row | Compound | activity against PARP-3 (PARP-3) | type of inhibition (PARP-1) | Vmax (PARP-1; inhibitor concentration 300 μМ) [RFU/sec] | Vmax (PARP-1; inhibitor concentration 600 μМ) [RFU/sec] | Vmax (PARP-1; inhibitor concentration 900 μМ) [RFU/sec] | IC50 [1] [µM] | IC50 [2] [µM] | inhibitory activity in the auto(ADP-ribosyl)ation reaction of PARP-3 (PARP-3; 1 mM concentration) | Vmax (PARP-1; inhibitor concentration 50 μМ) [RFU/sec] | Vmax (PARP-1; inhibitor concentration 100 μМ) [RFU/sec] | Vmax (PARP-1; inhibitor concentration 500 μМ) [RFU/sec]
1 | Nc1ncnc2c1ncn2C1CNCC(CNP(=O)(O)OP(=O)(O)OCC2OC(n3cnc4c(N)ncnc43)C(O)C2O)O1 (stereo not drawn) [Compound 10A] | lack of activity | mixed inhibitor | 0.090 | 0.068 | 0.062 | 353 ± 4 | 63 ± 10 | – | – | – | –
2 | Nc1ncnc2c1ncn2C1OC(COP(=O)(O)OP(=O)(O)NCC2CNCC(n3cc(I)c(=O)[nH]c3=O)O2)C(O)C1O (stereo not drawn) [Compound 10IU] | low activity | competitive inhibitors | – | – | – | 126 | 110 | significant inhibitory activity | 0.19 | 0.18 | 0.17
